Data set [1] deals with dystrophin. The data set is described as follows: Dystrophin immunohistochemistry in skeletal muscle and heart of mdx mice treated with gentamicin. The data set is classed as in vivo. To be noted: for Dystrophin staining intensity: 7 days. The procedure: All mice were then sacrificed, their skeletal muscle and their heart were frozen and cryostat sectioned. The presence of dystrophin in these sections was investigated by immunohistochemistry. […] In the untreated mdx muscles, dystrophin immunostaining was observed only in a few revertant fibers (Hoffman et al. 1990). […] The dystrophin staining was less intense in the muscles of mice treated with 1 mg/kg. […] The duration of treatment may vary.

Data set [2] deals with CFTR protein. Conditions: gentamicin 200 mg/mL (so in the source), incubation 18 to 24 hours; Howard et al. 1996; cited from earlier work.
The test system of data set [3] is mdx mice. The data set is described as follows: Toxicity signs in mdx mice treated with gentamicin. In kind it is in vivo. The source says:
Further, any mean by which gentamicin or gentamicin-like or derived molecules can be driven more directly to the site of action is within the scope of this invention.

gentamicin: the “Success of daily treatments of other route or duration” value in data set [1] (Sub-cutaneous or intra-muscular daily treatments of 7 to 14 days or longer) was “equivalently successful”. The Dystrophin staining intensity entry is “as intense as that observed in the normal mouse muscles” in data set [1] (mdx mice, I.M. 5 mg/day gentamicin, some muscles) and “less intense” in data set [1] (mdx mice, I.M. gentamicin, printed 1 mg/kg). The “Presence of dystrophin by immunohistochemistry” value in data set [1] (mdx mice, I.M. gentamicin 1 mg/day or 5 mg/day during 7 days, skeletal muscle and heart cryostat sections) was “detected by immunohistochemistry on all muscle fibers and all heart muscle cells”. Further, the “Suppression of premature stop codon in vivo” value in data set [1] (mdx mice, dose of 8 to 40 mg per Kg of body weight per day) is given as “successfully suppressed the premature stop codon”. In addition, the “Suppression of premature stop mutation in CFTR gene (full-length CFTR protein)” value in data set [2] is on record as “permitted to suppress the premature stop mutation”. The Toxicity signs entry in data set [3] was “No toxicity signs appeared”.
